Results: patent US9693556B2, “Herbicidal pyridazinone derivatives” (SYNGENTA LIMITED, priority 2011, dated 2017)

Tests used:
Assay type in all cases: in vivo
[1] = test system: Solanum nigrum (SOLNI); assay: Post-emergence herbicidal glasshouse test on Solanum nigrum; conditions: post-emergence; 1000 g/h; evaluated after 13 days
Procedure, shortened: (§1)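 Read-out: percentage herbicidal damage 13 days after spraying, given on a five-point scale (5=80-100%, 4=60-79%, 3=40-59%, 2=20-39%, 1=0-19%). Pots of standard soil; application at 1000 g/h, one day post-sowing for pre-emergence, eight days for post-emergence.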

[2] = test system: Setaria faberi (SETFA); assay: Post-emergence herbicidal glasshouse test on Setaria faberi; conditions: post-emergence; 1000 g/h; evaluated after 13 days
Procedure, shortened: as §1

[3] = test system: Ipomoea hederacea (IPOHE); assay: Pre-emergence herbicidal glasshouse test on Ipomoea hederacea; conditions: pre-emergence; 1000 g/h; evaluated after 13 days
Procedure, shortened: as §1

[4] = test system: Echinochloa crus-galli (ECHCG); assay: Post-emergence herbicidal glasshouse test on Echinochloa crus-galli; conditions: post-emergence; 1000 g/h; evaluated after 13 days
Procedure, shortened: as §1

[5] = test system: Setaria faberi (SETFA); assay: Pre-emergence herbicidal glasshouse test on Setaria faberi; conditions: pre-emergence; 1000 g/h; evaluated after 13 days
Procedure, shortened: as §1

[6] = test system: Amaranthus retoflexus (AMARE); assay: Pre-emergence herbicidal glasshouse test on Amaranthus retoflexus; conditions: pre-emergence; 1000 g/h; evaluated after 13 days
Procedure, shortened: as §1

[7] = test system: Alopecurus myosuroides (ALOMY); assay: Post-emergence herbicidal glasshouse test on Alopecurus myosuroides; conditions: post-emergence; 1000 g/h; evaluated after 13 days
Procedure, shortened: as §1

[8] = test system: Amaranthus retoflexus (AMARE); assay: Post-emergence herbicidal glasshouse test on Amaranthus retoflexus; conditions: post-emergence; 1000 g/h; evaluated after 13 days
Procedure, shortened: as §1

[9] = test system: Ipomoea hederacea (IPOHE); assay: Post-emergence herbicidal glasshouse test on Ipomoea hederacea; conditions: post-emergence; 1000 g/h; evaluated after 13 days
Procedure, shortened: as §1

[10] = test system: Alopecurus myosuroides (ALOMY); assay: Pre-emergence herbicidal glasshouse test on Alopecurus myosuroides; conditions: pre-emergence; 1000 g/h; evaluated after 13 days
Procedure, shortened: as §1

[11] = test system: Echinochloa crus-galli (ECHCG); assay: Pre-emergence herbicidal glasshouse test on Echinochloa crus-galli; conditions: pre-emergence; 1000 g/h; evaluated after 13 days
Procedure, shortened: as §1

[12] = test system: Solanum nigrum (SOLNI); assay: Pre-emergence herbicidal glasshouse test on Solanum nigrum; conditions: pre-emergence; 1000 g/h; evaluated after 13 days
Procedure, shortened: as §1

| SMILES | POST Application SOLNI herbicidal damage (five point scale) [1] | POST Application SETFA herbicidal damage (five point scale) [2] | PRE Application IPOHE herbicidal damage (five point scale) [3] | POST Application ECHCG herbicidal damage (five point scale) [4] | PRE Application SETFA herbicidal damage (five point scale) [5] | PRE Application AMARE herbicidal damage (five point scale) [6] | POST Application ALOMY herbicidal damage (five point scale) [7] | POST Application AMARE herbicidal damage (five point scale) [8] | POST Application IPOHE herbicidal damage (five point scale) [9] | PRE Application ALOMY herbicidal damage (five point scale) [10] | PRE Application ECHCG herbicidal damage (five point scale) [11] | PRE Application SOLNI herbicidal damage (five point scale) [12] |
| --- | --- | --- | --- | --- | --- | --- | --- | --- | --- | --- | --- | --- |
| CC[S+]([O-])c1ccccc1-c1cnn(C)c(=O)c1O (stereo not drawn) [Compound 1.041] | 5 (5=80-100% damage) | 5 (5=80-100% damage) | 1 (1=0-19% damage) | 5 (5=80-100% damage) | 2 (2=20-39% damage) | 4 (4=60-79% damage) | 4 (4=60-79% damage) | 5 (5=80-100% damage) | 5 (5=80-100% damage) | 3 (3=40-59% damage) | 4 (4=60-79% damage) | 2 (2=20-39% damage) |
| CCS(=O)(=O)c1ccccc1-c1cnn(C)c(=O)c1O [Compound 1.042] | 5 (5=80-100% damage) | 5 (5=80-100% damage) | 1 (1=0-19% damage) | 5 (5=80-100% damage) | 5 (5=80-100% damage) | 5 (5=80-100% damage) | 5 (5=80-100% damage) | 5 (5=80-100% damage) | 4 (4=60-79% damage) | 5 (5=80-100% damage) | 5 (5=80-100% damage) | 5 (5=80-100% damage) |
| CC(C)[S+]([O-])c1ccccc1-c1cnn(C)c(=O)c1O (stereo not drawn) [Compound 1.043] | 5 (5=80-100% damage) | 4 (4=60-79% damage) | 1 (1=0-19% damage) | 4 (4=60-79% damage) | 1 (1=0-19% damage) | 1 (1=0-19% damage) | 2 (2=20-39% damage) | 5 (5=80-100% damage) | 4 (4=60-79% damage) | 1 (1=0-19% damage) | 1 (1=0-19% damage) | 1 (1=0-19% damage) |
| CC(C)S(=O)(=O)c1ccccc1-c1cnn(C)c(=O)c1O [Compound 1.044] | 5 (5=80-100% damage) | 5 (5=80-100% damage) | 1 (1=0-19% damage) | 5 (5=80-100% damage) | 5 (5=80-100% damage) | 5 (5=80-100% damage) | 5 (5=80-100% damage) | 5 (5=80-100% damage) | 5 (5=80-100% damage) | 5 (5=80-100% damage) | 5 (5=80-100% damage) | 5 (5=80-100% damage) |
| Cc1c(Cl)ccc(-c2cnn(C)c(=O)c2O)c1F [Compound 1.045] | 4 (4=60-79% damage) | 1 (1=0-19% damage) | 1 (1=0-19% damage) | 1 (1=0-19% damage) | 1 (1=0-19% damage) | 1 (1=0-19% damage) | 1 (1=0-19% damage) | 2 (2=20-39% damage) | 1 (1=0-19% damage) | 1 (1=0-19% damage) | 1 (1=0-19% damage) | 1 (1=0-19% damage) |
| Cn1ncc(-c2ccccc2S(C)(=O)=O)c(O)c1=O [Compound 1.046] | 5 (5=80-100% damage) | 5 (5=80-100% damage) | 1 (1=0-19% damage) | 5 (5=80-100% damage) | 3 (3=40-59% damage) | 5 (5=80-100% damage) | 5 (5=80-100% damage) | 5 (5=80-100% damage) | 5 (5=80-100% damage) | 5 (5=80-100% damage) | 5 (5=80-100% damage) | 5 (5=80-100% damage) |
| CCCC[S+]([O-])c1ccccc1-c1cnn(C)c(=O)c1O (stereo not drawn) [Compound 1.047] | 4 (4=60-79% damage) | 1 (1=0-19% damage) | 1 (1=0-19% damage) | 1 (1=0-19% damage) | 1 (1=0-19% damage) | 1 (1=0-19% damage) | 1 (1=0-19% damage) | 3 (3=40-59% damage) | 3 (3=40-59% damage) | 1 (1=0-19% damage) | 1 (1=0-19% damage) | 1 (1=0-19% damage) |
| Cn1ncc(-c2ccc(S(C)(=O)=O)c(COCC(F)(F)F)c2Cl)c(O)c1=O [Compound 1.049] | 5 (5=80-100% damage) | 5 (5=80-100% damage) | 1 (1=0-19% damage) | 5 (5=80-100% damage) | 3 (3=40-59% damage) | 5 (5=80-100% damage) | 5 (5=80-100% damage) | 5 (5=80-100% damage) | 5 (5=80-100% damage) | 2 (2=20-39% damage) | 5 (5=80-100% damage) | 5 (5=80-100% damage) |
| Cn1ncc(-c2ccc(S(C)(=O)=O)c(Cl)c2Cl)c(O)c1=O [Compound 1.050] | 5 (5=80-100% damage) | 4 (4=60-79% damage) | 1 (1=0-19% damage) | 5 (5=80-100% damage) | 2 (2=20-39% damage) | 5 (5=80-100% damage) | 2 (2=20-39% damage) | 5 (5=80-100% damage) | 5 (5=80-100% damage) | 1 (1=0-19% damage) | 5 (5=80-100% damage) | 3 (3=40-59% damage) |
| CCCCS(=O)(=O)c1ccccc1-c1cnn(C)c(=O)c1O [Compound 1.051] | 5 (5=80-100% damage) | 2 (2=20-39% damage) | 1 (1=0-19% damage) | 2 (2=20-39% damage) | 1 (1=0-19% damage) | 5 (5=80-100% damage) | 1 (1=0-19% damage) | 5 (5=80-100% damage) | 4 (4=60-79% damage) | 2 (2=20-39% damage) | 4 (4=60-79% damage) | 1 (1=0-19% damage) |
